From patent US20230014181A1, “CULTURE SYSTEM AND METHODS FOR IMPROVED MODELING OF NEUROLOGICAL CONDITIONS” (Genentech, Inc., priority 2021, published 2023)
Where two headings read alike, the source gives them in different places.

How the values were obtained:
Assay type in all cases: cell-based
[1] = system: human iPSC-derived microglia treated with 5 μM soluble Aβ species; test: Microglia plaque formation (Methoxy-X04-positive structures) with dynamin inhibitors; conditions: 0.6 μM for 24 h
Method: Error bars+/−s.e.m. and n=4 wells; ANOVA ***P<0.001, **P<0.01.
iPSC derived microglia were obtained and screened for microglia marker expression. iPSC microglia were then differentiated. Briefly, iPSCs were treated with BMP, FGF and activin for 2-4 days to induce mesoderm fate, then treated with VEGF and supportive hematopoietic cytokines for 6-10 days to generate hematopoietic progenitors (HPCs). HPCs were seeded onto matrigel-coated flasks, and treated with IL-34, IDE1 (TGF-β1 agonist), and M-CSF for 3-4 weeks to differentiate into microglia. Human iPSC microglia were validated by immunostaining of the following markers: Goat anti-TREM2 (1:500), Mouse anti-MERTK (1:500), Rabbit anti-IBA1 (1:1000), Rabbit anti-TMEM119 (1:500), CD33 (1:500), CX3CR1 (1:500), CD64 (1:500), P2RY12 (1:500), CD32 (1:500), PU.1 (1:500).
To further confirm time-lapsed result, an immunostaining time-course study was performed. Microglia took up Aβs within 30 minutes (FIG. 14D). After 6 hours, small internalized puncta disappeared and a larger, faintly X04 positive, Aβ42 aggregate appeared at the edge near each cell (FIG. 14D). After 1 day, larger Aβ42 aggregates with higher X04 staining intensity were seen next to microglia, and additional microglia began to surround these aggregates. At 4 days X04 dye positive plaque structures were present with surrounding microglia. […]

[2] = system: Aβ42 oligomer-induced neural toxicity in human iPSC neurons; test: Hit validation by IC50 curves in double culture (MAP2, Synapsin 1/2, CUX2, NFL-H); conditions: dose response
Method: (§1) Error bars+/−s.e.m. and n=4 wells. IC50 curves were fitted by Prism software.
as §1
Error bars+/−s.e.m. and n=4 wells. IC50 curves were fitted using Prism software.
To further validate this pathway, several known inhibitors of kinases in the DLK signaling pathway were tested to determine whether they could also be neuroprotective in the AD model.

[3] = system: human iPSC neurons and astrocytes treated with 5 μM sAβ42s; test: Focused small molecule screen, double culture (neuron, astrocyte), rescue from sAβ42s toxicity, high content imaging; conditions: double culture, 5 μM sAβ42s; for percent rescue from sAβ42s toxicity at 6.25 µM / percent rescue from sAβ42s toxicity at 12.5 µM / percent rescue from sAβ42s toxicity at 25 µM: Homo sapiens, iPSC
How it was run: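 Human iPSC neuron–astrocyte cultures given 5 μM sAβ42 oligomers plus compounds at 50, 25, 12.5 and 6.25 μM (10× additions). Fixed cells immunostained for MAP2, synapsin 1/2, CUX2 and beta III tubulin, imaged by confocal high-content microscopy; % rescue computed, ≥30% in any readout scored as hit.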

[4] = system: human iPSC neurons, astrocytes and microglia treated with 5 μM sAβ42s; test: Focused small molecule screen, triple culture (neuron, astrocyte, microglia), rescue from sAβ42s toxicity; conditions: for percent rescue from sAβ42s toxicity at 0.78 µM / percent rescue from sAβ42s toxicity at 3.13 µM / percent rescue from sAβ42s toxicity at 12.5 µM: Homo sapiens, iPSC
How it was run: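 A hit was any compound giving ≥30% rescue of dendrite area (MAP2), synapse count, CUX2 cell count or axon area when dosed against 5 μM sAβ42s toxicity. Testing used iPSC-derived double (neuron/astrocyte) or triple (plus microglia) cultures, at four concentrations of 50, 25, 12.5 and 6.25 μM for double and 50, 12.5, 3.1 and 0.78 μM for triple cultures.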

[5] = system: human iPSC-derived neurons; test: 21-day time course of single doses of soluble Aβ42 species on iPSC neurons; conditions: 1.25 μM
Method: To investigate whether AD pathologies can be studied in a controlled, in vitro system of human neurons, cultured human iPSC-derived neurons were treated with synthetic Aβ42 oligomers, prepared by oligomerization of Aβ42 monomers at 4° C. following previously published protocols (FIG. 2A; following Stine et al., 2011). Briefly, AggreSure™ β-Amyloid (1-42), human monomers (Anaspec) were resuspended in DMSO followed by PBS to form a 100 μM solution. Aβ42 monomers were subsequently incubated at 4° C. for 24 hours, then frozen at −80° C. to stop the oligomerization process. Five to six lots of Aβ42 monomers were screened at time and assessed for neurotoxic and the degree of toxicity. […] For fluorescent Aβ42 oligomer experiments, Beta-Amyloid (1-42), HiLyte™ Fluor 555-labeled, Human (Anaspec) was used. For pHrodo experiments, Beta-Amyloid (1-42) buman was labeled with pHrodo™ Green AM Intracellular pH Indicator (Invitrogen) according to manufacturer's protocol.
Prior to experimentation, media volume in wells containing neurons was equalized with liquid handling automation (Bravo) in order to ensure precise control of concentrations. All Aβ42 oligomers, anti-Aβ, small molecules, inflammatory cytokines were prepared at 10× concentration and added to Neuronal Culture Media at an appropriate volume. […]

[6] = system: primary rat cortical neurons; test: Aβ42 oligomer toxicity in primary rat cortical neurons; conditions: several lots
Method: Error bars+/−s.e.m. and n=4 wells.
The preps were determined to contain a heterogeneous mixture of both soluble oligomer and fibrils, and thus were referred to as “soluble Aβ42 species” (Aps).

O=C(N/N=C/c1ccc(O)c(O)c1)c1cc2ccccc2cc1O [Dynasore]
decrease of plaque formation (Methoxy-X04-positive plaque-like structures) [1]: approximately 4 fold

CCCCCCCCNC(=O)/C(C#N)=C/c1cn(CCCN(C)C)c2ccccc12 [Dynole 34-2]
decrease of plaque formation (Methoxy-X04-positive plaque-like structures) [1]: approximately 4 fold

Nc1ncc(C(=O)NC2CN(C(=O)C3CC3)C2)c2ccc(-c3cccc(F)c3)nc12 [GNE-495]
neuronal protection against Aβ [2]: conferred neuronal protection against Aβ in a dose-dependent manner

Cc1cc(NC(=O)c2cccc(NC(=O)/C=C/CN(C)C)c2)ccc1Nc1nccc(-c2cccnc2)n1 [JNK-IN-8]
neuronal protection against Aβ [2]: conferred neuronal protection against Aβ in a dose-dependent manner

Nc1ccc(-c2cnc(N)c(-c3ccc(Cl)cc3)c2)cn1 [PF06260933]
neuronal protection against Aβ [2]: conferred neuronal protection against Aβ in a dose-dependent manner

CN(C)S(=O)(=O)c1ccc2c(c1)/C(=C/c1cc3c([nH]1)CCCC3)C(=O)N2 [SU6656]
% B3T rescue ([3]; 6.25 μM compound): 4%
% Cux2 rescue ([3]; 6.25 μM compound): 101%
% MAP2 rescue ([3]; 6.25 μM compound): 5%
% Synapse rescue ([3]; 6.25 μM compound): 13%
% B3T rescue ([3]; 12.5 μM compound): 3%
% Cux2 rescue ([3]; 12.5 μM compound): 120%
% MAP2 rescue ([3]; 12.5 μM compound): 4%
% Synapse rescue ([3]; 12.5 μM compound): 11%
% B3T rescue ([3]; 25 μM compound): −37%
% Cux2 rescue ([3]; 25 μM compound): 126%
% MAP2 rescue ([3]; 25 μM compound): 3%
% Synapse rescue ([3]; 25 μM compound): 15%
% B3T rescue ([3]; 50 μM compound): −188%
% Cux2 rescue ([3]; 50 μM compound): 106%
% MAP2 rescue ([3]; 50 μM compound): 3%
% Synapse rescue ([3]; 50 μM compound): 11%
% B3T rescue ([4]; 0.78 μM compound): 80%
% MAP2 rescue ([4]; 0.78 μM compound): 58%
% Synapse rescue ([4]; 0.78 μM compound): 51%
% B3T rescue ([4]; 3.13 μM compound): 92%
% MAP2 rescue ([4]; 3.13 μM compound): 72%
% Synapse rescue ([4]; 3.13 μM compound): 64%
% B3T rescue ([4]; 12.50 μM compound): 71%
% MAP2 rescue ([4]; 12.50 μM compound): 53%
% Synapse rescue ([4]; 12.50 μM compound): 49%
% B3T rescue ([4]; 50.00 μM compound): 48%
% MAP2 rescue ([4]; 50.00 μM compound): 40%
% Synapse rescue ([4]; 50.00 μM compound): 36%

CCN(CC)CCNC(=O)c1c(C)[nH]c(/C=C2\C(=O)Nc3ccc(F)cc32)c1C [SU 11248]
% B3T rescue ([3]; 25 μM compound): −19%
% Cux2 rescue ([3]; 25 μM compound): 59%
% MAP2 rescue ([3]; 25 μM compound): 16%
% Synapse rescue ([3]; 25 μM compound): 4%
% B3T rescue ([3]; 50 μM compound): 4%
% Cux2 rescue ([3]; 50 μM compound): 115%
% MAP2 rescue ([3]; 50 μM compound): 7%
% Synapse rescue ([3]; 50 μM compound): 21%
% B3T rescue ([4]; 0.78 μM compound): 69%
% MAP2 rescue ([4]; 0.78 μM compound): 73%
% Synapse rescue ([4]; 0.78 μM compound): 68%
% B3T rescue ([4]; 3.13 μM compound): 74%
% MAP2 rescue ([4]; 3.13 μM compound): 88%
% Synapse rescue ([4]; 3.13 μM compound): 77%

CN1CCN(CCOc2cc(OC3CCOCC3)c3c(Nc4c(Cl)ccc5c4OCO5)ncnc3c2)CC1 [Saracatinib (AZD0530), Saracatinib]
percent rescue from sAβ42s toxicity at 6.25 µM ([3]; 6.25 μM compound, read-out: % B3T rescue): 62%
percent rescue from sAβ42s toxicity at 6.25 µM ([3]; 6.25 μM compound, read-out: % Cux2 rescue): 7%
percent rescue from sAβ42s toxicity at 6.25 µM ([3]; 6.25 μM compound, read-out: % MAP2 rescue): 61%
percent rescue from sAβ42s toxicity at 6.25 µM ([3]; 6.25 μM compound, read-out: % Synapse rescue): 32%
percent rescue from sAβ42s toxicity at 12.5 µM ([3]; 12.5 μM compound, read-out: % B3T rescue): 56%
percent rescue from sAβ42s toxicity at 12.5 µM ([3]; 12.5 μM compound, read-out: % Cux2 rescue): 13%
percent rescue from sAβ42s toxicity at 12.5 µM ([3]; 12.5 μM compound, read-out: % MAP2 rescue): 71%
percent rescue from sAβ42s toxicity at 12.5 µM ([3]; 12.5 μM compound, read-out: % Synapse rescue): 34%
percent rescue from sAβ42s toxicity at 25 µM ([3]; 25 μM compound, read-out: % B3T rescue): 30%
percent rescue from sAβ42s toxicity at 25 µM ([3]; 25 μM compound, read-out: % Cux2 rescue): 18%
percent rescue from sAβ42s toxicity at 25 µM ([3]; 25 μM compound, read-out: % MAP2 rescue): 65%
percent rescue from sAβ42s toxicity at 25 µM ([3]; 25 μM compound, read-out: % Synapse rescue): 10%
percent rescue from sAβ42s toxicity at 0.78 µM ([4]; 0.78 μM compound, read-out: % B3T rescue): 99%
percent rescue from sAβ42s toxicity at 0.78 µM ([4]; 0.78 μM compound, read-out: % MAP2 rescue): 72%
percent rescue from sAβ42s toxicity at 0.78 µM ([4]; 0.78 μM compound, read-out: % Synapse rescue): 65%
percent rescue from sAβ42s toxicity at 3.13 µM ([4]; 3.13 μM compound, read-out: % B3T rescue): 99%
percent rescue from sAβ42s toxicity at 3.13 µM ([4]; 3.13 μM compound, read-out: % MAP2 rescue): 73%
percent rescue from sAβ42s toxicity at 3.13 µM ([4]; 3.13 μM compound, read-out: % Synapse rescue): 65%
percent rescue from sAβ42s toxicity at 12.5 µM ([4]; 12.50 μM compound, read-out: % B3T rescue): 35%
percent rescue from sAβ42s toxicity at 12.5 µM ([4]; 12.50 μM compound, read-out: % MAP2 rescue): -12%
percent rescue from sAβ42s toxicity at 12.5 µM ([4]; 12.50 μM compound, read-out: % Synapse rescue): -2%

Cc1cc(Nc2cc(N3CCN(C)CC3)nc(Sc3ccc(NC(=O)C4CC4)cc3)n2)n[nH]1 [VX-680]
neuronal protection against Aβ [2]: conferred neuronal protection against Aβ in a dose-dependent manner

MDL 28170
% B3T rescue ([3]; 6.25 μM compound): 18%
% Cux2 rescue ([3]; 6.25 μM compound): 81%
% MAP2 rescue ([3]; 6.25 μM compound): 33%
% Synapse rescue ([3]; 6.25 μM compound): 10%
% B3T rescue ([3]; 12.5 μM compound): 22%
% Cux2 rescue ([3]; 12.5 μM compound): 74%
% MAP2 rescue ([3]; 12.5 μM compound): 33%
% Synapse rescue ([3]; 12.5 μM compound): 9%
% B3T rescue ([3]; 25 μM compound): 25%
% Cux2 rescue ([3]; 25 μM compound): 84%
% MAP2 rescue ([3]; 25 μM compound): 36%
% Synapse rescue ([3]; 25 μM compound): 11%
% B3T rescue ([3]; 50 μM compound): 47%
% Cux2 rescue ([3]; 50 μM compound): 57%
% MAP2 rescue ([3]; 50 μM compound): 26%
% Synapse rescue ([3]; 50 μM compound): 23%
% B3T rescue ([4]; 0.78 μM compound): 30%
% MAP2 rescue ([4]; 0.78 μM compound): 19%
% Synapse rescue ([4]; 0.78 μM compound): 10%
% B3T rescue ([4]; 12.50 μM compound): 33%
% MAP2 rescue ([4]; 12.50 μM compound): 31%
% Synapse rescue ([4]; 12.50 μM compound): 8%
% B3T rescue ([4]; 50.00 μM compound): 73%
% MAP2 rescue ([4]; 50.00 μM compound): 47%
% Synapse rescue ([4]; 50.00 μM compound): 41%

soluble Aβ42 species: heterogeneous mixture of soluble oligomer and fibrils made from synthetic Aβ42 monomers at 4° C.
dendrite or axon reduction [5]: no effect on dendrite or axon reduction
reduction in dendrites or synapses [6]: did not show reduction in dendrites or synapses
